Measurements published in patent publication US20130171178A1, “Immunogenic Peptides of Xage-1” (THE GOVERNMENT OF THE UNITED STATES AS REPRESENTED BY THE …, priority 2003, published 2013).
Like-named read-outs stand apart in the source and are kept apart here. Where a SMILES comes first, the peptide text is derived from it.

Experiments:
HLA-A2 = biological target: T1, HLA-A2 (Homo sapiens, UniProt P04439, D140Y/D185E/D98H/E176V/E277Q/G131W/G231S/I119V/I121R/I166T/I218V/L300P/L318F/N151K/N90K/P208A/P217A/Q86G/Q94H/R138H/R169H/T345S); test: T2 binding assay (HLA-A2 expression on T2 cells by flow cytometry)
T1 construct: host or cells: T2 cells (human T-B lymphoblast hybrid, TAP1/TAP2 deficient)

[1] = test system: HLA-A2 positive human Ewing's sarcoma cell line which expresses XAGE-1 mRNA; test: CTL lysis of human XAGE-1-expressing cancer cells by CTLs of immunized HLA-A2 transgenic mice; type: in vivo
Description: (§1) FIG. 3. CTLs induced with peptide of the invention can lyse human cancer cell expressing XAGE-1. Spleen cells derived from HLA-A2 transgenic mice immunized with a peptide of the invention (SEQ ID NO:6), as the effector cells, were stimulated in vitro for two weeks and used for a CTL assay. C1R.AAD cells pulsed or unpulsed with a peptide of SEQ ID NO:6 and a human osteosarcoma cell line expressing XAGE-1 (SB, described in Liu et al, Can Research 60:4752-4755 (2000)) were used as target cells. “E:T Ratio” stands for “Effector:Target ratio,” as indicated on the axis.
(§2) Xage-1 14 peptide (50 nmol) was emulsified in incomplete Freund's adjuvant with 50 nmol of a helper epitope derived from HCV core128-140, 5 μg of IL-12, and 5 μg of GM-CSF. Transgenic A2 Kb mice were immunized s.c. with the emulsified peptide and given a booster shot at 2 weeks. […] A week after the second stimulation, cells were harvested and measured for cytotoxic activity. The cytotoxic activity was measured by 4-hr ^51Cr-release assay. The percentage of specific ^51Cr release was determined as follows: (experimental release−spontaneous release)/(maximum release−spontaneous release)×100. Maximum release was determined from supernatants of cells that were lysed by addition of 5% Triton X-100. Spontaneous release was determined from target cells incubated without added effector cells. […]

[2] = test system: C1R.AAD cells pulsed or unpulsed with peptide; test: CTL 51Cr-release assay, spleen cells of peptide-immunized HLA-A2 transgenic mice against peptide-pulsed or unpulsed targets; type: in vivo; details: spleen cells from immunized HLA-A2-transgenic mice
Description: as §1, §2

[3] = T2 binding assay, enhanced xage-1 14 peptides, read-out: Binding Affinity to HLA-A2 (FI50)
[4] = T2 cells, overnight incubation with peptide and β2-microglobulin, read-out: binding affinity to HLA-A2 (F.I.50)

Q: Which EC50 (HLA-A2; [3]) does the source give for CC(C)C[C@H](NC(=O)[C@@H](N)Cc1ccc(O)cc1)C(=O)N[C@@H](Cc1ccccc1)C(=O)N1CCC[C@H]1C(=O)N[C@@H](CO)C(=O)N[C@@H](C)C(=O)N1CCC[C@H]1C(=O)N[C@@H](CO)C(=O)N1CCC[C@H]1C(=O)N[C@H](C(=O)O)C(C)C [1Y2L xage-1 14, YLFPSAPSPV] (H-YLFPSAPSPV-OH; N-terminus and C-terminus assumed) here?
A: Its EC50 is 3040 nM.

Q: For CC(C)[C@H](NC(=O)[C@@H]1CCCN1C(=O)[C@H](CO)NC(=O)[C@@H]1CCCN1C(=O)[C@H](C)NC(=O)[C@H](CO)NC(=O)[C@@H]1CCCN1C(=O)[C@H](Cc1ccccc1)NC(=O)[C@@H](NC(=O)[C@@H](N)Cc1ccc(O)cc1)C(C)C)C(=O)O [1Y xage-1 14, YVFPSAPSPV] (H-YVFPSAPSPV-OH; N-terminus and C-terminus assumed), which EC50 (HLA-A2; [3]) is on record?
A: The EC50 was 2360 nM.

Q: How did the “binding to HLA-A2 (in words)” value (HLA-A2; T2 binding assay) turn out when CSCC[C@H](NC(=O)[C@H](CC(C)C)NC(=O)CN)C(=O)N1CCC[C@H]1C(=O)N[C@@H](CO)C(=O)N[C@@H](C)C(=O)N1CCC[C@H]1C(=O)N[C@@H](CO)C(=O)N1CCC[C@H]1C(=O)N[C@H](C(=O)O)C(C)C [2L3M xage-1 14, GLMPSAPSPV] (H-GLMPSAPSPV-OH; N-terminus and C-terminus assumed) was run?
A: The value was “particularly high binding affinity to HLA-A2”.

Q: And the EC50 (HLA-A2; [3])?
A: Its EC50 is 620 nM.

Q: How did the EC50 (HLA-A2; [3]) turn out when CC(C)C[C@H](NC(=O)CN)C(=O)N[C@@H](Cc1ccccc1)C(=O)N1CCC[C@H]1C(=O)N[C@@H](CO)C(=O)N[C@@H](C)C(=O)N1CCC[C@H]1C(=O)N[C@@H](CO)C(=O)N1CCC[C@H]1C(=O)N[C@H](C(=O)O)C(C)C [2L xage-1 14, GLFPSAPSPV] (H-GLFPSAPSPV-OH; N-terminus and C-terminus assumed) was run?
A: Its EC50 is 1860 nM.

Q: How did the “binding to HLA-A2 (in words)” value (HLA-A2; T2 binding assay) turn out when CSCC[C@H](NC(=O)[C@@H](NC(=O)CN)C(C)C)C(=O)N1CCC[C@H]1C(=O)N[C@@H](CO)C(=O)N[C@@H](C)C(=O)N1CCC[C@H]1C(=O)N[C@@H](CO)C(=O)N1CCC[C@H]1C(=O)N[C@H](C(=O)O)C(C)C [3M xage-1 14, GVMPSAPSPV] (H-GVMPSAPSPV-OH; N-terminus and C-terminus assumed) was run?
A: Its value is “particularly high binding affinity to HLA-A2”.

Q: And the EC50 (HLA-A2; [3])?
A: Its EC50 is 280 nM.

Q: How did the “binding to HLA-A2 (in words)” value (HLA-A2; T2 binding assay) turn out when CC(C)[C@H](NC(=O)[C@@H]1CCCN1C(=O)[C@H](CO)NC(=O)[C@@H]1CCCN1C(=O)[C@H](C)NC(=O)[C@H](CO)NC(=O)[C@@H]1CCCN1C(=O)[C@H](Cc1ccccc1)NC(=O)[C@@H](NC(=O)CN)C(C)C)C(=O)O [xage-1 14, GVFPSAPSPV] (H-GVFPSAPSPV-OH; N-terminus and C-terminus assumed) was run?
A: The value was “surprisingly stronger binding to HLA-A2 compared to other candidate peptides”.

Q: And the EC50 (HLA-A2; [4])?
A: The EC50 was 700 to 800 nM.

Q: And the “killing of human XAGE-1-expressing cancer cells by CTLs (FIG. 3)” value ([1]; CTLs from HLA-A2 transgenic mice immunized with peptide, varying E:T ratio)?
A: The value was “killed human RAGE-1-expressing cancer cells in a dose dependent manner”.

Q: What about the “lysis of human Ewing's sarcoma cells by CTLs” value ([1]; CTLs from mice immunized twice with peptide, restimulated in vitro) of the same compound?
A: Its value is “lysed the human Ewing's sarcoma cells”.

Q: And the “specific lytic activity against peptide-pulsed targets” value ([2]; stimulated twice in vitro, targets pulsed with xage-1 14)?
A: Its value is “lysed target cells pulsed with peptide”.

Q: And the “lytic activity against target cells not pulsed with peptide” value ([2]; unpulsed targets)?
A: Its value is “did not lyse target cells not pulsed with peptide”.

Q: How did the EC50 (HLA-A2; [4]) turn out when CC[C@H](C)[C@H](NC(=O)[C@H](Cc1c[nH]c2ccccc12)NC(=O)[C@@H](NC(=O)[C@H](CCC(=O)O)NC(=O)[C@@H]1CCCN1C(=O)[C@@H](NC(=O)[C@H](CCCNC(=N)N)NC(=O)[C@@H](NC(=O)[C@H](C)N)[C@@H](C)O)C(C)C)C(C)C)C(=O)N[C@@H](CC(C)C)C(=O)O [xage-1 33, ATRVPEVWIL, reference compound] (H-ATRVPEVWIL-OH) was run?
A: Its EC50 is over 50000 nM.

Q: How did the EC50 (HLA-A2; [4]) turn out when CSCC[C@H](NC(=O)[C@@H](NC(=O)[C@@H]1CCCN1C(=O)[C@H](CO)NC(=O)[C@H](CCCNC(=N)N)NC(=O)[C@@H]1CCCN1C(=O)[C@H](CO)NC(=O)[C@H](C)NC(=O)[C@@H](NC(=O)[C@@H](N)Cc1c[nH]cn1)[C@@H](C)O)C(C)C)C(=O)O [xage-1 57, HTASPRSPVM, reference compound] (H-HTASPRSPVM-OH) was run?
A: Its EC50 is over 50000 nM.
